{"source": "paper PMC6895912", "about": "(Cancers, 2019)", "key": {"[1]": {"tested_on": "drug-naïve and drug-resistant prostate cancer cell lines (six different cell lines)", "experiment": "MTT cell viability (antiproliferative) assay, GI50", "format": "cell-based", "settings": "Homo sapiens, 168 h, read-out: GI50 (concentration required to inhibit cell growth by 50%), range over the six cell lines tested, 7 days", "source_text": "The new NGGAs (VNPP414 and VNPP433-3β) were identified from in vitro anti-proliferative activities of our in-house compounds assessed in several PC cell lines, including LNCaP, C4-2B, and CWR22Rv1 (22Rv1). […] It was recently reported that treatment of AR-expressing bladder cancer cell lines with enzalutamide induced up-regulation of tumor suppressor, p53, p21 and PTEN, and down-regulation of several oncogenic genes, such as c-myc, cyclin D1, and cyclin E [38]. […] We note that these cell-cycle studies were conducted in LNCaP cells. Inhibition of colony formations (clonogenicity assays) was also assessed by treating the parental CWR-R1 cells and two drug-resistant counterparts with Gal, VNPP433-3β, or ENZ.\n(A) Comparative GI50 values of Gal, NGGAs, and enzalutamide (ENZ) in drug-naïve-/-resistant prostate cancer cells. (B) Gal and NGGAs induce G1 cell cycle arrest in LNCaP cells. (C) VNPP414 and VNPP433-3β deplete the cell cycle regulator, cyclin D1, and upregulate p21; “+” indicates specific treatments. (D) Gal cause dose-dependent depletion of cyclin D1. […] (F) Quantification of colony formation units (CFU) in drug-naive/resistant cells. Colony assays were repeated three times and colonies counted in four quadrants of the wells. […]\nMTT assays were performed as described in our previous publications. […] Data was analyzed with GraphPad prism 4 software."}, "[2]": {"experiment": "Host toxicity monitoring in the CWR22Rv1 xenograft study (body weight, health status)", "format": "in vivo, male NOD SCID mice", "experimental": "Following the in vitro studies and determination of the PK parameters, we then investigated the relative efficacy. Gal and the NGGAs in vivo using difficult-to-treat castration-resistant CWR22Rv1 xenografts. Given the enhanced IP and PO PK parameters of VNPP414 and VNPP433-3β over Gal, we decided to use lower doses of the new analogs compared to the previous Gal doses (200 mg/kg, IP/PO). Gal (200 mg/kg) served as positive control, while ENZ (25 mg/kg) administered PO was used as negative control. Male NOD SCID mice bearing CWR22Rv1 tumors were treated with vehicle, ENZ, Gal, VNPP414, and VNPP433-3β for 16 days as described in the Methods and Materials Section. […] In contrast, Gal and the NGGAs caused statistically significant tumor growth inhibition (TGI). […] It is notable that VNPP433-3β (at 7.5- and 15-fold lower molar doses) and VNPP414 (at 4-fold lower molar dose) are more efficacious than Gal. In general, no host toxicities were observed, as monitored by changes in animal body weight (Figure 7C). […]"}}, "data": [{"smiles": "C[C@]12CC[C@H](n3ccnc3)CC1=CCC1C2CC[C@]2(C)C(n3cnc4ccccc43)=CCC12", "note": "(stereo partly drawn) [VNPP433-3β]", "values": [{"measurement": "GI50", "setting": "[1]", "value": "1120 to 2540", "unit": "nM"}, {"measurement": "mortality", "setting": "[2]; 30 mg/kg PO once daily group, 5 mice", "value": "one mouse died on day 16"}, {"measurement": "host toxicity, monitored by changes in animal body weight", "setting": "[2]; CWR22Rv1 tumor-bearing mice, PO, 16 days", "value": "no apparent host toxicity"}]}]}
